# From patent US20230096766A1, “AMINO ACID HAVING FUNCTIONAL GROUP CAPABLE OF INTERMOLECULAR HYDROGEN BONDING, PEPTIDE COMPOUND CONTAINING SAME AND METHOD FOR PRODUCTION THEREOF” (Chugai Seiyaku Kabushiki Kaisha, priority 2018, published 2023)
# *1 amine or outer side, *2 acyl side, *3 side chain or, on linkers, in order; H or OH if unused. Where a SMILES comes first, the peptide text is derived from it. Bridges are numbered along the chain shown (N, C = ends). [ ]: non-standard residue; d: D form. The star is where a group is joined. ξ: configuration not given here. NMeHph(3-OMe-4-CONHMe) = CNC(=O)c1ccc(CC[C@H](NC)C(=O)O)cc1OC; Glu(NHSO2Me) = CS(=O)(=O)NC(=O)CC[C@H](N)C(=O)O; X18 = NN([C@@H](Cc1cccc(Cl)c1)C(=O)[*:2])[*:1]; NMePhe(3-Cl) = CN[C@@H](Cc1cccc(Cl)c1)C(=O)O; ξGln(SO2Me) = CS(=O)(=O)NC(=O)CCC(N)C(=O)O; NMeW = CN[C@@H](Cc1c[nH]c2ccccc12)C(=O)O; X16 = CC(C)C(C)[C@H](N[*:1])C(=O)[*:2]; NMehPhe = CN[C@@H](CCc1ccccc1)C(=O)O; X6 = O=C([C@H](CCCCO)N[*:1])[*:2]; Hyp = O=C(O)[C@@H]1C[C@@H](O)CN1; NMeF = CN[C@@H](Cc1ccccc1)C(=O)O; NMeGABA = CN(CCCC(=O)[*:2])[*:1]; NMeI = CC[C@H](C)[C@H](NC)C(=O)O; Butyl(3-Me,3-OH) = CC(C)(O)CC*; NMeL = CN[C@@H](CC(C)C)C(=O)O; dNMeL = CN[C@H](CC(C)C)C(=O)O; Butyl(3S-OH) = C[C@H](O)CC*; NMeV = CN[C@H](C(=O)O)C(C)C; NMeAbu = CC[C@H](NC)C(=O)O; NMeA = CN[C@@H](C)C(=O)O; Piperidide = C1CCN(*)CC1; NBuGly = CCCCNCC(=O)O; Ethyl(2-OH) = OCC*; ξS = NC(CO)C(=O)O; X3 = C[C@H](O)C*; Sar = CNCC(=O)O; tBu = CC(C)(C)*
# Assay: in vitro
# Conditions: human, Caco-2, Caco-2
row,Structure (SMILES),Papp
1,CCCCN1CC(=O)N(C)[C@@H](CC(C)C)C(=O)N[C@@H](COC(C)(C)C)C(=O)N(C)[C@@H](Cc2ccccc2)C(=O)N(C)[C@@H](C(C)C)C(=O)N[C@H](C(=O)N2CCCCC2)CC(=O)N[C@H](C(C)C)C(=O)N(C)[C@@H](Cc2ccccc2)C(=O)NC(CCC(=O)NS(C)(=O)=O)C(=O)N(C)[C@@H](CC(C)C)C(=O)N[C@@H](CC(C)C)C1=O (stereo partly drawn) [pd67] ([dV][NMeF][ξGln(SO2Me)][NMeL]L[NBuGly][NMeL]S(tBu)[NMeF][NMeV]D-Piperidide; lactam N-11),0.06 ×10⁻⁶ cm/s
2,CCCCN1CC(=O)N(C)[C@@H](Cc2cccc(Cl)c2)C(=O)N[C@@H](CCC(=O)NS(C)(=O)=O)C(=O)N(C)[C@@H](CC(C)C)C(=O)N[C@@H]([C@@H](C)O)C(=O)N(CCCC)CC(=O)N(C)[C@@H](Cc2ccccc2)C(=O)N(C)[C@@H](CC(C)C)C(=O)N[C@@H](CC(C)C)C(=O)N(C)[C@@H](CC(C)C)C(=O)N[C@H](C(=O)N2CCCCC2)CC1=O [pd66] ([NBuGly][NMePhe(3-Cl)][Glu(NHSO2Me)][NMeL]T[NBuGly][NMeF][NMeL]L[NMeL]D-Piperidide; lactam N-11),0.09 ×10⁻⁶ cm/s

# Same assay, conditions: human, Caco-2, Caco-2 (cm/sec)
row,Structure (SMILES),Papp
1,CC[C@H]1C(=O)N[C@@H](CCCCO)C(=O)N(C)[C@@H](CC(C)C)C(=O)N(C)[C@@H](Cc2cccc(Cl)c2)C(=O)N[C@@H](CC(C)C)C(=O)N(C)[C@@H](CCc2ccccc2)C(=O)N(C)[C@@H](CC(C)C)C(=O)N[C@@H]([C@@H](C)O)C(=O)N(C)CC(=O)N(C)[C@@H](CC(C)C)C(=O)N[C@H](C(=O)N2CCCCC2)CC(=O)N1C [Compound B09] ([NMeAbu][X6][NMeL][NMePhe(3-Cl)]L[NMehPhe][NMeL]T[Sar][NMeL]D-Piperidide; lactam N-11),0.31 ×10⁻⁶ cm/s
2,CC[C@H](C)[C@H]1C(=O)N[C@@H]([C@@H](C)O)C(=O)N(C)CC(=O)N(C)[C@@H](C)C(=O)N[C@H](C(=O)N2CCCCC2)CC(=O)N(C)[C@@H](C)C(=O)N[C@@H](C(C)C)C(=O)N(C)[C@@H](CC(C)C)C(=O)N(C)[C@@H](Cc2ccccc2)C(=O)NC(COc2cccc(Cl)c2)C(=O)N(C)[C@@H](Cc2ccccc2)C(=O)N1C (stereo partly shown) [pd186],1.8 ×10⁻⁶ cm/s
3,CC[C@H](C)[C@@H]1NC(=O)[C@H](CC(C)C)N(C)C(=O)[C@@H]2C[C@@H](OCCO)CN2C(=O)[C@H]([C@@H](C)O)NC(=O)[C@H](CC(C)C)N(C)C(=O)[C@H](CC(C)C)NC(=O)[C@H](C(C)C(C)C)NC(=O)[C@@H](CC(C)C)N(C)C(=O)C[C@@H](C(=O)N2CCCCC2)NC(=O)[C@H](CC(C)C)NC(=O)[C@H](CC(C)C)N(C)C1=O (stereo partly shown) [AP233] ([dNMeL][X16]L[NMeL]T[Hyp](Ethyl(2-OH))[NMeL]I[NMeL]LD-Piperidide; lactam N-11),3 ×10⁻⁶ cm/s
4,CC(C)C[C@H]1C(=O)N(C)[C@@H](CC(C)C)C(=O)N(C)[C@@H](Cc2c[nH]c3ccccc23)C(=O)N[C@@H]([C@@H](C)O)C(=O)N(C)[C@@H](C)C(=O)N(C)[C@@H](CC(C)C)C(=O)N[C@H](C(=O)N2CCCCC2)CC(=O)N(C)[C@@H](C)C(=O)N(C)[C@@H](CC(C)C)C(=O)N(C)[C@@H](CC(C)C)C(=O)N[C@@H](C)C(=O)N1C [pd105] ([NMeA][NMeL][NMeL]A[NMeL][NMeL][NMeW]T[NMeA][NMeL]D-Piperidide; lactam N-11),0.28 ×10⁻⁶ cm/s
5,CC[C@H](C)[C@H]1C(=O)N[C@@H]([C@@H](C)O)C(=O)N(C)CC(=O)N(C)[C@@H](CC(C)C)C(=O)N[C@H](C(=O)N2CCCCC2)CC(=O)N(C)[C@@H](C(C)C)C(=O)N[C@@H](COC[C@H](C)O)C(=O)N(C)[C@@H](CC(C)C)C(=O)N(C)[C@@H](Cc2cccc(Cl)c2)C(=O)N[C@@H](CC(C)C)C(=O)N(C)[C@@H](Cc2ccccc2)C(=O)N1C [AP69] ([NMeV]S(X3)[NMeL][NMePhe(3-Cl)]L[NMeF][NMeI]T[Sar][NMeL]D-Piperidide; lactam N-11),0.7 ×10⁻⁶ cm/s
6,CC[C@H](C)[C@H]1C(=O)N[C@@H]([C@@H](C)O)C(=O)N(C)CC(=O)N(C)[C@@H](CC(C)C)C(=O)N[C@H](C(=O)N2CCCCC2)CC(=O)N(C)[C@@H](C(C)C)C(=O)N[C@@H](CC(C)C)C(=O)N(C)[C@@H](CC(C)C)C(=O)N(C)[C@@H](Cc2ccccc2)C(=O)N[C@@H](COC[C@H](C)O)C(=O)N(C)[C@@H](Cc2ccccc2)C(=O)N1C [AP66] ([NMeV]L[NMeL][NMeF]S(X3)[NMeF][NMeI]T[Sar][NMeL]D-Piperidide; lactam N-11),0.68 ×10⁻⁶ cm/s
7,CCCCN1CC(=O)N(C)[C@@H](Cc2ccccc2)C(=O)N(C)[C@@H](CC(C)C)C(=O)N[C@@H](COC(C)(C)C)C(=O)N(C)[C@@H](CC(C)C)C(=O)N[C@H](C(=O)N2CCCCC2)CC(=O)N(C)CC(=O)N(C)[C@@H](CCc2ccc(C(=O)NC)c(OC)c2)C(=O)N[C@@H](C(C)C)C(=O)N(C)[C@@H](CC(C)C)C(=O)N[C@@H]([C@@H](C)O)C1=O [AP231] ([Sar][NMeHph(3-OMe-4-CONHMe)]V[NMeL]T[NBuGly][NMeF][NMeL]S(tBu)[NMeL]D-Piperidide; lactam N-11),1 ×10⁻⁶ cm/s
8,CCCCN1CC(=O)N(C)[C@@H](Cc2ccccc2)C(=O)N(C)[C@@H](CC(C)C)C(=O)N[C@@H](Cc2ccc(O)cc2)C(=O)N(C)[C@@H](CC(C)C)C(=O)N[C@H](C(=O)N2CCCCC2)CC(=O)N(C)CC(=O)N(C)[C@@H](CC(C)C)C(=O)N[C@@H]([C@@H](C)CC)C(=O)N(C)[C@@H](CC(C)C)C(=O)N[C@@H]([C@@H](C)O)C1=O [Compound F08] ([Sar][NMeL]I[NMeL]T[NBuGly][NMeF][NMeL]Y[NMeL]D-Piperidide; lactam N-11),0.05 ×10⁻⁶ cm/s
9,CCCCN1CC(=O)N(C)[C@@H](Cc2ccccc2)C(=O)N(C)[C@@H](C(C)C)C(=O)N[C@@H](COC(C)(C)C)C(=O)N(C)[C@@H](CC(C)C)C(=O)N[C@H](C(=O)N2CCCCC2)CC(=O)N(C)CC(=O)N(N)[C@@H](Cc2cccc(Cl)c2)C(=O)N[C@@H](COCC[C@H](C)O)C(=O)N(C)[C@@H](CC(C)C)C(=O)N[C@@H]([C@@H](C)O)C1=O [AP105] ([Sar][X18]S(Butyl(3S-OH))[NMeL]T[NBuGly][NMeF][NMeV]S(tBu)[NMeL]D-Piperidide; lactam N-11),0.55 ×10⁻⁶ cm/s
10,CC(C)C[C@H]1C(=O)N[C@@H](C(C)C)C(=O)N(C)[C@@H](Cc2ccccc2)C(=O)N(C)[C@@H](Cc2cccc(Cl)c2)C(=O)NC(COCC[C@H](C)O)C(=O)N(C)[C@@H](CC(C)C)C(=O)N[C@@H]([C@@H](C)O)C(=O)N(C)[C@@H](CC(C)C)C(=O)N(C)[C@@H](CC(C)C)C(=O)N[C@H](C(=O)N2CCCCC2)CC(=O)N(C)CCCC(=O)N1C (stereo partly drawn) [AP102] ([NMeGABA][NMeL]V[NMeF][NMePhe(3-Cl)][ξS](Butyl(3S-OH))[NMeL]T[NMeL][NMeL]D-Piperidide; lactam N-11),0.43 ×10⁻⁶ cm/s
11,"CC(C)C[C@@H]1NC(=O)[C@H](CCc2ccccc2)N(C)C(=O)[C@@H](C(C)C)NC(=O)C[C@@H](C(=O)N2CCCCC2)NC(=O)[C@H](CC(C)C)N(C)C(=O)[C@H](Cc2ccccc2)N(C)C(=O)[C@H](COCCC(C)(C)O)NC(=O)[C@H](CC(C)C)N(C)C(=O)CN(C)C(=O)[C@H]([C@@H](C)O)NC(=O)[C@H](CC(C)C)N(C)C1=O [AP60] ([dV][NMehPhe]L[NMeL]T[Sar][NMeL]S(Butyl(3-Me,3-OH))[NMeF][NMeL]D-Piperidide; lactam N-11)",1 ×10⁻⁶ cm/s
